Source: patent US6894058B1, “Use of 3-hydroxy-3-methylgutaryl coenzym a reductase inhibitors for the manufacture of a medicament for the treatment of diabetic neuropathy” (AstraZeneca AB, priority 1999, dated 2005)

How the values were obtained:
Diabetic rats [1] = experiment: Sciatic nerve motor conduction velocity in streptozotocin-diabetic rats; format: in vivo, Sprague-Dawley rats; settings: for Sciatic Nerve Motor Conduction Velocity: group mean ± SEM (number of rats in brackets); for nerve conduction velocity (NCV), effect in words: animal model of diabetic neuropathy
Protocol: Motor nerve conduction velocity was measured (as previously described by Cameron et al, Diabetologia, 1993, Vol. 36, pages 299-304) between sciatic notch and knee in the nerve branch to tibialis anterior muscle, which is representative of the whole sciatic nerve in terms of susceptibility to diabetes and treatment effects.

Diabetic rats [2] = experiment: Saphenous nerve sensory conduction velocity in streptozotocin-diabetic rats; format: in vivo, Sprague-Dawley rats; settings: for Saphenous Nerve Sensory Conduction Velocity: group mean ± SEM (number of rats in brackets)
Protocol: Sensory conduction velocity in saphenous nerve was measured between the groin and ankle (as previously described by Cameron et al. Quarterly Journal of Experimental Physiology, 1989, vol. 74, pages 917-926).

Diabetic rats [3] = experiment: Sciatic nerve blood flow by hydrogen clearance microelectrode polarography in streptozotocin-diabetic rats; settings: for Sciatic Nerve Blood Flow: group mean ± SEM (number of rats in brackets); for nerve blood flow, effect in words: animal model of diabetic neuropathy
[4] = Diabetic + 2 weeks of dosing at 20 mg/kg
[5] = Diabetic + 2 weeks of dosing at 50 mg/kg
[6] = Rattus norvegicus, Dose response, 5 groups of 8 rats, dose ranged from 0.3-20 mg/kg

Row | SMILES | Sciatic Nerve Motor Conduction Velocity (Diabetic rats [1]; [4]) | Sciatic Nerve Motor Conduction Velocity (Diabetic rats [1]; [5]) | nerve conduction velocity (NCV), effect in words (Diabetic rats [1]) | Saphenous Nerve Sensory Conduction Velocity (Diabetic rats [2]; [4]) | Saphenous Nerve Sensory Conduction Velocity (Diabetic rats [2]; [5]) | Sciatic Nerve Blood Flow (Diabetic rats [3]; [5]) | nerve blood flow, effect in words (Diabetic rats [3]) | ED50 (Diabetic rats [1]; [6]) | ED50 (Diabetic rats [2]; [6]) | Sciatic Nerve Blood Flow (Diabetic rats [3]; [4])
1 | CC(C)c1c(C(=O)Nc2ccccc2)c(-c2ccccc2)c(-c2ccc(F)cc2)n1CC[C@@H](O)C[C@@H](O)CC(=O)O [Atorvastatin, atorvastatin] | 61.53 ± 0.76 (6) | 63.59 ± 0.69 (6) | improvement | 59.77 m/s ± 0.93 (6) | 60.72 m/s ± 0.94 (6) | 16.96 ± 1.39 ml/min/100 g (6) | improvement |  |  | 
2 | CC(C)c1nc(N(C)S(C)(=O)=O)nc(-c2ccc(F)cc2)c1/C=C/[C@@H](O)C[C@@H](O)CC(=O)O [The AGENT, (E)-7-[4-(4-fluorophenyl)-6-isopropyl-2-[methyl(methylsulfonyl)amino]pyrimidin-5-yl](3R,5S)-3,5-dihydroxyhept-6-enoic acid] | 63.34 ± 0.61 (8) |  | improvement | 60.57 m/s ± 0.83 (8) |  |  | improvement | 2.3 mg/kg | 0.9 mg/kg | 16.19 ± 0.51 ml/min/100 g (8)
